# From patent US20110166070A1, “METHOD OF PREVENTING PREMATURE DELIVERY” (priority 2008, published 2011)
# Assays:
# uterine contractions = settings: cited from earlier work; for stopping uterine contractions: vaginal progesterone, injection of 17 alpha-hydroxyprogesterone caproate
# women = settings: cited from earlier work
# myometrium = settings: in vitro, nonpregnant and pregnant uteri (MacLennan 1991); cited from earlier work
# [1] = system: healthy primiparous women at ≧40 weeks gestation; assay: Clinical study: change from baseline in Bishop score and cervical dilation (cervical ripening), 24 h IV infusion; format: in vivo, human; set-up: key to Total Bishop Score - Change from Baseline, Minimum / Total Bishop Score - Change from Baseline, Maximum / Total Bishop Score - Change from Baseline, Mean / Total Bishop Score - Change from Baseline, Median: Bishop score points; total score ranges 0 to 13; settings: for Total Bishop Score - Change from Baseline, Maximum / Total Bishop Score - Change from Baseline, Median / Total Bishop Score - Change from Baseline, Minimum / Total Bishop Score - Change from Baseline, Mean: 75 μg/kg/d IV, ITT
# Description: Overview of the Clinical Study. The current study was designed with two objectives. The first was to determine the safety of intravenous administration of recombinant human relaxin in women at term for 24 hours. The second objective was to determine whether a high dose of relaxin administered by this method for 24 hours could ripen the cervix or induce labor. The primary efficacy endpoint was change from baseline in Bishop score, which is a composite, well accepted measurement of cervical ripening (Bishop, 1964). The score has 5 components, all of which contribute to the cervical changes necessary for vaginal delivery of the baby: dilation, effacement, station, consistency and position of cervix.
# Study Subjects. Study subjects were healthy primiparous women at ≧40 weeks gestation who were admitted to the hospital for scheduled induction of labor. This study was conducted in compliance with the requirements of the protocol, International Conference on Harmonization (ICH), Good Clinical Practices (GCP), FDA, local regulations and BAS Medical, Inc.'s standard operating procedures (SOP). The investigators were responsible for obtaining informed consent from each patient participating in the study. All pertinent aspects of the study were explained to the patient before he or she signed the informed consent form. Informed consent was approved by local ethics committees and was obtained from the patient before any activity or treatment was undertaken which was not part of routine care. This included, but was not limited to, the performance of diagnostic or therapeutic procedures and the administration of the first dose of the study medication.
# Part A was a multicenter, randomized, double-blind, placebo-controlled, dose escalation study of 18 subjects at ≧40 weeks gestation and who were scheduled for induction. Doses of 7.5, 25 and 75 mcg/kg/day of relaxin were tested. Subjects were treated in cohorts of 6 and randomly assigned to receive relaxin or placebo in a 4:2 ratio, respectively. Dose escalation to the next dose level occurred once safety data was reviewed.
# (§1) Eligible patients were admitted to the hospital at least 24-hours prior to scheduled induction. Either relaxin or matching placebo was administered by continuous intravenous infusion for 24 hours prior to induction. Subjects were monitored throughout the administration of study medication for blood pressure and heart rate, as well as for uterine contractions and the onset of labor. Fetal nonstress testing and heart rate monitoring were conducted for evaluation of fetal well-being. Blood samples were drawn for serum chemistry and hematology at baseline, 12 and 24 hr of dosing, and at 2 days, 1 week and 4 weeks after delivery. Samples for the evaluation of serum relaxin levels were drawn at baseline, 30 minutes, 1, 4, 6, 12, and 24 hr of dosing and a sample of cord blood was also drawn for relaxin measurement. A sample was also drawn from the study subject at 2 days post-delivery. Samples for measurement of development of anti-relaxin antibodies were drawn prior to dosing and at 1 and 4 weeks post-delivery. Neonates were evaluated for relaxin levels at 2 days and for the presence of anti-relaxin antibodies at 1 and 4 weeks.
# (§2) Part B of the study was a multi-center, randomized, double-blind, placebo-controlled, parallel-group study of 50 subjects at ≧40 weeks gestation and who were scheduled for induction. Subjects were randomized in a 1:1 ratio to the most appropriate dose of relaxin determined from Part A or to placebo. As in Part A, eligible subjects were administered an intravenous infusion of relaxin or placebo for 24 hours prior to induction. Subjects and neonates were evaluated in a manner identical to that in Part A for all assessments.
# The primary efficacy endpoint was change from baseline in Bishop score at 6, 12 and 24 hours (or end of study drug administration). […]
# [2] = system: healthy primiparous women at ≧40 weeks gestation; assay: Clinical study: safety (adverse events in subjects, fetuses, neonates); format: in vivo, human; settings: for Serious adverse events in neonates (number): none related to the study drug
# Description: Safety. Safety was assessed by means of reported and observed adverse events, physical examination and 12-lead ECG findings, vital sign measurements, and the results of clinical laboratory assessments. Serum clinical chemistry samples were taken at pre-dose, 12 and 24 hours following the start of dosing, 2 days, 1 week and 4 weeks postpartum. Maternal vital signs included temperature, heart rate and blood pressure. These evaluations were performed at screening, pre-dose, during dosing, 24-48 hours post-dosing and at 2 days, 1 week and 4 weeks post-partum. Measurements during the 24-48 hours post-dosing period were taken at 28, 32, 36, 40, 44 and 48 hours. Neonatal vital signs included temperature, pulse, respiration and blood pressure. All vital signs measurements were done at delivery, 2 days, 1 week and 4 weeks post-partum.
# Adverse events in study subjects were recorded according to the time of onset, i.e. dosing period (0-24 hours), 24-hours post-infusion (24-48 hours) and follow-up (>48 hours). Adverse events reported in fetuses and in neonates were also summarized by treatment group. For laboratory tests (hematology, serum chemistry, urinalysis), vital signs, physical examination and ECGs summary statistics were provided for baseline and changes from Baseline for each scheduled time by treatment group. Post-hoc repeated measure analyses of systolic and diastolic blood pressure were also performed.
# nonpregnant women = settings: administered intravaginally, cited from earlier work
# [3] = system: healthy primiparous women at ≧40 weeks gestation; assay: Clinical study: secondary efficacy endpoints related to delivery; format: in vivo, human
# Description: as §1, §2
# The primary efficacy endpoint was change from baseline in Bishop score at 6, 12 and 24 hours (or end of study drug administration). The score ranges from 0 (absence of any cervical changes) to a maximum of 13, representing a cervix that is completely dilated (>5 cm), effaced (>80%), soft, at a +1 or +2 station, and anteriorly positioned (Bishop, 1964). A number of secondary efficacy endpoints were also explored: Time to complete dilation; proportion of subjects with Bishop score change>3; proportion of subjects with Bishop score>5; proportion of subjects with Bishop score>8; time to active labor; time to delivery (vaginal or c-section); frequency of uterine contractions; incidence of uterine hyperstimulation requiring terbutaline treatment or discontinuation of study drug (relaxin or placebo) infusion; incidence of spontaneous labor; rates of c-section; incidence of abnormal fetal heart rate tracings; changes from baseline in systolic and diastolic blood pressure; changes from baseline in serum creatinine and predicted creatinine clearance as determined by the Cockroft-Gault formula.
# Statistical Analysis. Analyses were conducted on the Intent-to-treat (ITT) population, which consisted of all randomized subjects and on the Per-protocol (PP) population, which consisted of all randomized subjects who received study medication for at least 18 hours (75% compliance) and had baseline and 24 hour (or end of treatment) assessments of the Bishop Score. For efficacy comparisons, the patients from Part A that received the active dose administered in Part B are pooled with the patients from Part B (pooled relaxin group) as are all placebo patients from parts A and B (pooled placebo group).
# [4] = Serum relaxin concentrations (Relaxin ELISA); format: in vivo, human
# Description: as §1
# Relaxin ELISA. The measurement of serum relaxin concentrations is based on an enzyme immunoassay technique using 96-well microtiter plates coated with affinity purified goat-anti-relaxin antibodies. Pre-diluted controls and unknown samples were pipetted into the wells of the microtiter plate and incubated at 2-8° C. allowing for any relaxin present to bind to the anti-relaxin antibodies. After an overnight incubation the plates were washed to remove any non-reactive serum components. […] After a 20-minute incubation, an aliquot of 2M sulfuric acid was added to stop the color reaction and the absorbance was measured at 450 nm (reference 650 nm) using a plate spectrophotometer. […] The relaxin levels were quantified according to a standard curve generated by measuring purified recombinant relaxin in a 20% human serum matrix utilizing a four-parameter curve fit equation. […]
# [5] = Last Obs., pooled relaxin group
# [6] = pooled relaxin group, p 0.153 vs placebo
# [7] = pooled relaxin group, p 0.213 vs placebo
compound,measurement,setting,value
CCCCCC(=O)O[C@]1(C(C)=O)CC[C@H]2[C@@H]3CCC4=CC(=O)CC[C@]4(C)[C@H]3CC[C@@]21C [17 alpha-hydroxyprogesterone caproate],safety questioned by the FDA,"uterine contractions; Meis et al. 2003, FDA advisory committees 2006",increase in miscarriage and fetal death
same,stopping uterine contractions,uterine contractions,effective in stopping uterine contractions
CC(=O)[C@H]1CC[C@H]2[C@@H]3CCC4=CC(=O)CC[C@]4(C)[C@H]3CC[C@]12C [progesterone],stopping uterine contractions,uterine contractions,effective in stopping uterine contractions
porcine relaxin,spontaneous labor,women; intracervical gel vs placebo (MacLennan 1986),more likely to go into spontaneous labor
same,cervical effacement and time to delivery,"women; intracervical pellet, randomized double-blind controlled trial (Evans et al. 1983)",greater cervical effacement (thinning) and a shorter time to delivery
relaxin,effect on myometrial contractions,myometrium,"inhibits myometrial contractions of nonpregnant uteri, but does not affect the myometrium of pregnancy"
same,Total Bishop scores in the lower relaxin dose groups,"[1]; 7.5 and 25 μg/kg/day, Part A, data not shown",no different than that seen in the pooled placebo group
same,"Total Bishop Score - Change from Baseline, Maximum","[1]; 6 hours, pooled relaxin group",9
same,"Total Bishop Score - Change from Baseline, Median","[1]; 6 hours, pooled relaxin group",1.00
same,"Total Bishop Score - Change from Baseline, Minimum","[1]; 6 hours, pooled relaxin group",0
same,"Total Bishop Score - Change from Baseline, Mean","[1]; 6 hours, pooled relaxin group, P 0.2407 vs pooled placebo",1.55
same,"Total Bishop Score - Change from Baseline, Maximum","[1]; 12 hours, pooled relaxin group",7
same,"Total Bishop Score - Change from Baseline, Median","[1]; 12 hours, pooled relaxin group",2.00
same,"Total Bishop Score - Change from Baseline, Minimum","[1]; 12 hours, pooled relaxin group",0
same,"Total Bishop Score - Change from Baseline, Mean","[1]; 12 hours, pooled relaxin group, P 0.1085 vs pooled placebo",2.11
same,increase in cervical dilation from the initial dilation,"[1]; 24 hour time point, pooled relaxin group 75 mcg/kg/day IV (placebo 1.39 cm)",0.69 cm
same,"Total Bishop Score - Change from Baseline, Maximum","[1]; 24 hours, pooled relaxin group",7
same,"Total Bishop Score - Change from Baseline, Median","[1]; 24 hours, pooled relaxin group",4.00
same,"Total Bishop Score - Change from Baseline, Minimum","[1]; 24 hours, pooled relaxin group",0
same,"Total Bishop Score - Change from Baseline, Mean","[1]; 24 hours, pooled relaxin group, P 0.2507 vs pooled placebo",3.26
same,"Total Bishop Score - Change from Baseline, Mean","[1]; Last Obs. (last available value post-baseline), pooled relaxin group, P 0.4900 vs pooled placebo",3.59
same,"Total Bishop Score - Change from Baseline, Maximum",[1]; [5],9
same,"Total Bishop Score - Change from Baseline, Median",[1]; [5],4.00
same,"Total Bishop Score - Change from Baseline, Minimum",[1]; [5],0
same,"Bishop score, difference between pooled relaxin and placebo groups","[1]; any of the observation times (6, 12, 24 hours)",no statistically significant differences
same,cervical dilation compared to the placebo group,"[1]; pooled relaxin group, p<0.024 by t-test",significantly reduced
same,Serious adverse events in neonates (number),[2]; 7.5 mcg/kg/d dose group,one
same,adverse effects over the entire dosage range,"[2]; intravenous, 7.5-75 mcg/kg/day, pregnant women at term",no relevant adverse effects
same,Serious adverse events in neonates (number),[2]; pooled relaxin group (75 mcg/kg/day),4
same,Serious adverse events in fetuses (number of events),"[2]; pooled relaxin group, fetal hypoxia of moderate severity, not related to the study drug",Two
same,effect on fetal heart rate,[2]; relaxin treatment,no effect
same,effect on cervical ripening,nonpregnant women; nonpregnant women,did not show any effect
same,safety of administration,nonpregnant women,safe and associated with minimal adverse side effects
same,serum levels of relaxin after treatment,nonpregnant women,did not increase
same,Time to Vaginal Delivery (mean + SD),"[3]; pooled relaxin group, n = 20, p 0.644 vs placebo",62 ± 40 h
same,Time to Onset of Active Labor,"[3]; pooled relaxin group, n = 26, p 0.412 vs placebo",53 h
same,Time to Delivery for Vaginal + C-section (mean + SD),"[3]; pooled relaxin group, n = 29, p 0.251 vs placebo",69 ± 40 h
same,Incidence of Vaginal Deliveries,[3]; [6],(69%)
same,Incidence of Vaginal Deliveries (subjects/total),[3]; [6],20/29
same,Incidence of Spontaneous Labor,[3]; [7],(41%)
same,Incidence of Spontaneous Labor (subjects/total),[3]; [7],12/29
same,"effect on incidence or time to vaginal delivery, incidence of spontaneous labor or time to the onset of labor",[3]; relaxin infusion vs placebo,did not significantly affect
same,serum relaxin concentration post partum,[4]; 2 days post partum,just above levels of detection
same,peak mean serum relaxin concentration,"[4]; relaxin group, 75 mcg/kg/day IV infusion, at 12 hours of dosing",13.0 ng/mL
same,Mean serum relaxin concentration at baseline,"[4]; relaxin group, baseline, reflecting endogenous relaxin levels",0.293 ng/mL
